According to ChEMBL document CHEMBL1130303, “Evaluation of piperidinoethoxy moiety as an antiestrogenic substituent in non-steroidal anti-estrogens: Fertility regulation” (1997):
Calls of active or inactive are those of the source. The calls are words filed in the database; no cut-off is given here.

Key:
[1] = species: Rattus norvegicus; test: Antifertility activity at maximal effective dose in adult female rat in an antiestrogen assay; format: functional
[2] = biological target: Estrogen receptor (Rattus norvegicus) (UniProt P06211+Q62986); test: Relative Binding Affinity (RBA) for estrogen receptor in ovariectomized rats; format: protein assay
[3] = test system: Rattus norvegicus; test: Antifertility activity at maximal effective dose in adult female rat in an antiestrogen assay at 10 mg/kg; format: functional
[4] = species: Rattus norvegicus; test: Antifertility activity at maximal effective dose in adult female rat in an antiestrogen assay; Inactive; format: functional, organism-based
[5] = test system: Rattus norvegicus; test: Antifertility activity at maximal effective dose in adult female rat in an antiestrogen assay; Inactive at 10 mg/kg dose; format: functional, organism-based; set-up: dose 10 mg/kg
[6] = test system: Rattus norvegicus; test: Antifertility activity at maximal effective dose in adult female rat in an antiestrogen assay; Inactive at 5 mg/kg dose; format: functional, organism-based; set-up: dose 5 mg/kg

| Structure (SMILES) | relative binding affinity (RBA) [2] | MED100 [1] [mg/kg] | also measured |
| --- | --- | --- | --- |
| COc1ccc2c(c1)OC(C)(C)C(c1ccccc1)=C2c1ccc(OCCN2CCCCC2)cc1 | 0.53 | 10 | – |
| COc1ccc2c(c1)OC(C)(C)[C@H](c1ccccc1)[C@@H]2c1ccc(OCCN2CCCCC2)cc1 | – | – | Activity [3]: 90% |
| CC1(C)Oc2cc(O)ccc2[C@@H](c2ccc(OCCN3CCCC3)cc2)[C@H]1c1ccccc1 | – | – | MED100 [4]: inactive |
| CC1(C)Oc2cc(O)ccc2[C@@H](c2ccc(OCCN3CCCCC3)cc2)[C@H]1c1ccccc1 | – | – | MED100 [4]: inactive |
| CC1(C)Oc2cc(O)ccc2C(c2ccc(OCCN3CCCC3)cc2)=C1c1ccccc1 | 9.2 | 15 | – |
| COc1ccc2c(c1)OC(C)(C)C(c1ccccc1)=C2c1ccc(OCCN2CCCC2)cc1 | 0.86 | 5 | – |
| CC1(C)Oc2cc(O)ccc2C(c2ccc(OCCN3CCCCC3)cc2)=C1c1ccccc1 | 2.11 | – | MED100 [6]: inactive |

Second part, led by results:

| relative binding affinity (RBA) [2] | Structure (SMILES) | MED100 [1] [mg/kg] | also measured |
| --- | --- | --- | --- |
| 3.77 | COc1ccc2c(c1)OC(C)(C)[C@@H](c1ccccc1)[C@@H]2c1ccc(OCCN2CCCCC2)cc1 | 0.1 | – |
| 5.24 | COc1ccc2c(c1)OC(C)(C)[C@@H](c1ccccc1)[C@@H]2c1ccc(OCCN2CCCC2)cc1 [LEVORMELOXIFENE] | 0.25 | – |
| 1.45 | COc1ccc2c(c1)OCC(c1ccccc1)C2c1ccc(OCCN2CCCCC2)cc1 (stereo not given) | 0.25 | – |
| 112 | CC1(C)Oc2cc(O)ccc2[C@@H](c2ccc(OCCN3CCCC3)cc2)[C@@H]1c1ccccc1 | 0.25 | – |
| 0.16 | COc1ccc2c(c1)OC(C)(C)[C@H](c1ccccc1)[C@@H]2c1ccc(OCCN2CCCC2)cc1 | – | MED100 [5]: inactive |
| 7.35 | COc1ccc2c(c1)OCC(c1ccccc1)C2c1ccc(OCCN2CCCC2)cc1 (stereo not given) | 0.1 | – |
| 50.1 | CC1(C)Oc2cc(O)ccc2[C@@H](c2ccc(OCCN3CCCCC3)cc2)[C@@H]1c1ccccc1 | 0.2 | – |
